Test results reported in PMC7529893, “Structural basis for substrate recognition and chemical inhibition of oncogenic MAGE ubiquitin ligases” (Nature Communications, 2020).

molecular target: T1, MAGE-A11:PCF11 interaction (GST-MAGE-A11 and FAM-PCF11_4) (Homo sapiens, UniProt P43364); assay: TR-FRET primary / single point screen at 15 µM; type: binding; details: single point TR-FRET screening of 797 quinoline compounds against MAGE-A11:PCF11
T1 construct: GST-MAGE-A11 MHD (human MAGE-A11 MHD amino acid 218-429); made in house; host or cells: E. coli BL21(DE3)
T1 sequence (P43364 218-429): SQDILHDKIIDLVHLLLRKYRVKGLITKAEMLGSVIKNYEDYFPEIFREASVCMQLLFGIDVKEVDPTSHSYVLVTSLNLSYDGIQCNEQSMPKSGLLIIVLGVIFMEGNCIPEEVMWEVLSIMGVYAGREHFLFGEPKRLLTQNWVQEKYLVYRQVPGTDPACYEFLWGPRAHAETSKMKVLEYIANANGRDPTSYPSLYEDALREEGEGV
Outline: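 TR-FRET 520/490 nm emission ratio was read after 90 min at room temperature. Wells held 5 nM GST-MAGE-A11, 5 nM Tb-anti-GST, 200 nM FAM-PCF11_4 and 15 µM compound in Tris pH 7.5 buffer with MgCl2, BSA and DTT. %Inhibition was scaled to DMSO and minus-MAGE-A11 controls.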

Row | Structure (SMILES) | percent inhibition (TR-FRET)
1 | CCCN(CCCNc1c2ccc(Cl)cc2nc2ccc(OC)cc12)Cc1cccs1 [SJ000520920] | -164.134
2 | Cn1ccnc1CN(CCCCNc1ccnc2cc(Cl)ccc12)Cc1ccccc1 [SJ000520435] | 5.888
3 | C#CCOCC(O)CN1CCN(c2cc(C(F)(F)F)nc3ccccc23)CC1 (stereo not drawn) [SJ000228018] | -9.5157
4 | COc1ccc2nc3cc(Cl)ccc3c(NCCCNCc3ccsc3)c2c1 [SJ000523026] | -353.834
5 | Clc1ccc2c(NCCCCN(Cc3ccccc3)CC3CCCCC3)ccnc2c1 [SJ000361194] | 41.9261
6 | COc1ccc2ncc(S(=O)(=O)c3ccccc3)c(N3CCN(c4ccccc4F)CC3)c2c1 [SJ000315263] | -252.464
7 | CCN1CCN(c2c(S(=O)(=O)c3ccc(Cl)cc3)cnc3ccccc23)CC1 [SJ000247367] | -2.261
8 | CCc1ccc2ncc(S(=O)(=O)c3ccc(OC)cc3)c(N3CCN(c4ccc(F)cc4)CC3)c2c1 [SJ000117064] | -9.084
9 | CN1CCN(c2c(S(=O)(=O)c3ccccc3)cnc3ccc(F)cc23)CC1 [SJ000083949] | -11.5001
10 | CCCN(CCCNc1c2ccc(Cl)cc2nc2ccc(OC)cc12)CC1CCCCC1 [SJ000520938] | -163.904
11 | COc1ccc2ncc(S(=O)(=O)c3ccc(C)c(C)c3)c(N3CCN(c4ccccc4)CC3)c2c1 [SJ000117051] | -52.476
12 | CCCN(CCCNc1c2ccc(Cl)cc2nc2ccc(OC)cc12)Cc1ccc(CC)cc1 [SJ000522972] | -105.076
13 | COc1ccc2nc3cc(Cl)ccc3c(NCCCNCCC(C)(C)C)c2c1 [SJ000520994] | -456.31
14 | CCCN(CCCNc1c2ccc(Cl)cc2nc2ccc(OC)cc12)Cc1ccc(F)cc1 [SJ000520946] | -141.659
15 | CCCN(CCCNc1c2ccc(Cl)cc2nc2ccc(OC)cc12)Cc1cccc2c1OCO2 [SJ000522979] | -107.991
16 | CCCN(CCCNc1c2ccc(Cl)cc2nc2ccc(OC)cc12)CCc1ccccc1 [SJ000520962] | -591.727
17 | COc1ccc2nc3cc(Cl)ccc3c(NCCCNCc3ccc(Cl)cc3Cl)c2c1 [SJ000522958] | -97.8295
18 | FC(F)(F)Oc1ccc(CN(CCCCNc2ccnc3cc(Cl)ccc23)Cc2ccccc2)cc1 [SJ000520451] | 39.8725

same assay, conditions: single point TR-FRET screening of quinoline compounds against MAGE-A11:PCF11; 15 µM

Row | Structure (SMILES) | percent inhibition (TR-FRET)
19 | CCCN(CCCNc1ccnc2cc(C(F)(F)F)ccc12)Cc1ccc(F)cc1 [SJ000523070] | 26.4363
20 | CCCN(CCCNc1ccnc2cc(C(F)(F)F)ccc12)Cc1ccc(OC)c(OC)c1 [SJ000523079] | 14.6566
21 | Cc1ccc(CN(CCCNc2ccnc3cc(Cl)ccc23)Cc2ccccc2)s1 [SJ000312673] | 4.629
22 | CCCN(CCCNc1ccnc2cc(C(F)(F)F)ccc12)CC(CC)CC [SJ000361269] | 30.6641
23 | CCCN(CCCNc1ccnc2cc(Cl)ccc12)Cc1ccc(-c2ccccc2)cc1 [SJ000523039] | 30.2293
24 | CCCN(CCCNc1ccnc2cc(Cl)ccc12)Cc1ccc(C)s1 [SJ000357433] | 16.5062
25 | CCCN(CCCNc1ccnc2cc(C(F)(F)F)ccc12)Cc1ccc[nH]1 [SJ000361255] | 30.6641
26 | COc1ccc(-c2ccc3c(NCCCNCc4ccco4)ccnc3c2)cc1 [SJ000311294] | 7.824
27 | CCCN(CCCNc1c2ccc(Cl)cc2nc2ccc(OC)cc12)Cc1cccc(F)c1 [SJ000520945] | -90.1278
28 | CC(C)(C)CCN(CCCNc1ccnc2cc(Cl)ccc12)Cc1ccccc1 [SJ000357578] | 25.6873
29 | CCCN(CCCNc1c2ccc(Cl)cc2nc2ccc(OC)cc12)Cc1ccccc1C(F)(F)F [SJ000520928] | 14.1686
30 | FC(F)(F)c1ccc2c(NCCCNCc3cc(Br)cs3)ccnc2c1 [SJ000521056] | 32.7178
